Measured values: patent US20230114627A1, “COMPOSITION COMPRISING A METAL ASCORBO-CAMPHORATE COMPOUND AND METHOD FOR PREVENTION AND/OR TREATMENT OF PAPILLOMAVIRUS INFECTIONS” (MGB PHARMA Inc., priority 2020, published 2023)

Tested on: HEC-1A cells
Assay: Cytokine/chemokine MultiPlex assay (BioPlex 200) of HEC-1A secretion
Type: cell-based
Settings: 24 hours
From the text: In the model as provided in this example, a method to assess the pro-inflammatory character of antivirals intended to be applied as mucosal topicals was used.
Epithelial cells are capable of secreting a set of molecules called cytokines and chemokines, which are responsible for the recruitment and activation of immune cells at the site of secretion. This process can be deleterious in the context of sexual transmission of HIV-1 because the recruited cells are the preferred targets of the virus. […] A microbicide candidate should therefore not promote inflammation by activating the production of this type of molecule by the cells directly in contact with the substance (epithelial cells). These secretions can be deleterious in the context of sexual transmission of HIV-1 or HPV and other papillomaviruses because the recruited cells are the preferred targets of the virus. A microbicide candidate must thus not promote inflammation by activating the production of these types of molecules by the cells in contact with the substance (epithelial cells).
After 24 hours of incubation, a panel of 48 inflammation-related cytokines/chemokines is assayed by MultiPlex (BioPlex 200 BioRad) in the basal medium.

Work on zinc tetra-ascorbo-camphorate [C14] yielded a CTACK (0 μM) of 4.29 pg/mL, an Eotaxin (0 μM) of 0.87 pg/mL and an FGF (0 μM) of 1.515 pg/mL. It also gave a G-CSF (0 μM) of 1.885 pg/mL, a GM-CSF (0 μM) of 7.005 pg/mL and a GROα (0 μM) of 2.75 pg/mL. The HGF (0 μM) was 3.63 pg/mL, the IFN-α2 (0 μM) was 4.08 pg/mL and the IFN-γ (0 μM) was 94.255 pg/mL. The IL-1rα (0 μM) was 18.105 pg/mL, the IL-1α (0 μM) was 0 pg/mL and the IL-1β (0 μM) was 0.335 pg/mL. The IL-2 (0 μM) was 0.25 pg/mL, the IL-2rα (0 μM) was 4.06 pg/mL and the IL-3 (0 μM) was 6.785 pg/mL. For the same substance, the IL-4 (0 μM) was 0.16 pg/mL, the IL-5 (0 μM) was 0 pg/mL and the IL-6 (0 μM) was 0.435 pg/mL. The IL-7 (0 μM) was 3.95 pg/mL, the IL-8 (0 μM) was 971.01 pg/mL and the IL-9 (0 μM) was 25.865 pg/mL. For the same substance, the IL-10 (0 μM) was 3.085 pg/mL, the IL-12 (0 μM) was 98.495 pg/mL and the IL-12ρ40 (0 μM) was 0 pg/mL. For the same substance, the IL-13 (0 μM) was 3.34 pg/mL, the IL-15 (0 μM) was 0 pg/mL and the IL-16 (0 μM) was 0 pg/mL. The IL-17 (0 μM) was 0 pg/mL, the IL-18 (0 μM) was 0 pg/mL and the IP-10 (0 μM) was 6.19 pg/mL. It also gave an LIF (0 μM) of 0 pg/mL, a M-CSF (0 μM) of 3.725 pg/mL and an MCP-1 (0 μM) of 7.26 pg/mL. It also gave an MCP-3 (0 μM) of 0 pg/mL, an MIF (0 μM) of 6.92 pg/mL and an MIG (0 μM) of 3.09 pg/mL. It also gave an MIP-1α (0 μM) of 2.25 pg/mL, an MIP-1β (0 μM) of 1.32 pg/mL and a PDGF-β (0 μM) of 1.235 pg/mL. It also gave an RANTES (0 μM) of 12.86 pg/mL, an SCF (0 μM) of 0 pg/mL and an SCGF-β (0 μM) of 242.36 pg/mL. It also gave an SDF-1α (0 μM) of 13.03 pg/mL, a TNF-α (0 μM) of 4.9 pg/mL and a TNF-β (0 μM) of 0 pg/mL. For the same substance, the TRAIL (0 μM) was 3.43 pg/mL, the VEGF (0 μM) was 1384.84 pg/mL and the β-NGF (0 μM) was 1.04 pg/mL. For the same substance, the “effect on production of the 48 cytokines/chemokines” value (1 μM to 500 μM) was “did not affect the production”, the CTACK (5 μM) was 4.29 pg/mL and the Eotaxin (5 μM) was 0 pg/mL. For the same substance, the FGF (5 μM) was 1.415 pg/mL, the G-CSF (5 μM) was 1.99 pg/mL and the GM-CSF (5 μM) was 6.24 pg/mL. It also gave a GROα (5 μM) of 0 pg/mL, an HGF (5 μM) of 5.43 pg/mL and an IFN-α2 (5 μM) of 3.58 pg/mL. It also gave an IFN-γ (5 μM) of 95.43 pg/mL, an IL-1rα (5 μM) of 10.215 pg/mL and an IL-1α (5 μM) of 0 pg/mL. For the same substance, the IL-1β (5 μM) was 0.31 pg/mL, the IL-2 (5 μM) was 0.105 pg/mL and the IL-2rα (5 μM) was 4.29 pg/mL. For the same substance, the IL-3 (5 μM) was 6.785 pg/mL, the IL-4 (5 μM) was 0.05 pg/mL and the IL-5 (5 μM) was 0 pg/mL. The IL-6 (5 μM) was 0.34 pg/mL, the IL-7 (5 μM) was 3.38 pg/mL and the IL-8 (5 μM) was 941.46 pg/mL. The IL-9 (5 μM) was 25.535 pg/mL, the IL-10 (5 μM) was 3.395 pg/mL and the IL-12 (5 μM) was 98.855 pg/mL. The IL-12ρ40 (5 μM) was 0 pg/mL, the IL-13 (5 μM) was 4.8 pg/mL and the IL-15 (5 μM) was 0 pg/mL. The IL-16 (5 μM) was 0 pg/mL, the IL-17 (5 μM) was 0 pg/mL and the IL-18 (5 μM) was 0 pg/mL. The IP-10 (5 μM) was 4.855 pg/mL, the LIF (5 μM) was 0 pg/mL and the M-CSF (5 μM) was 4.7 pg/mL. It also gave an MCP-1 (5 μM) of 5.105 pg/mL, an MCP-3 (5 μM) of 0 pg/mL and an MIF (5 μM) of 2.735 pg/mL. For the same substance, the MIG (5 μM) was 3.76 pg/mL, the MIP-1α (5 μM) was 2.105 pg/mL and the MIP-1β (5 μM) was 1.09 pg/mL. For the same substance, the PDGF-β (5 μM) was 0.865 pg/mL, the RANTES (5 μM) was 12.27 pg/mL and the SCF (5 μM) was 0 pg/mL. It also gave an SCGF-β (5 μM) of 258.645 pg/mL, an SDF-1α (5 μM) of 13.03 pg/mL and a TNF-α (5 μM) of 5.5 pg/mL. For the same substance, the TNF-β (5 μM) was 0 pg/mL, the TRAIL (5 μM) was 4.21 pg/mL and the VEGF (5 μM) was 1240.71 pg/mL. It also gave a β-NGF (5 μM) of 0.95 pg/mL, a CTACK (10 μM) of 3.45 pg/mL and an Eotaxin (10 μM) of 0 pg/mL. For the same substance, the FGF (10 μM) was 1.53 pg/mL, the G-CSF (10 μM) was 1.99 pg/mL and the GM-CSF (10 μM) was 6.65 pg/mL. The GROα (10 μM) was 0 pg/mL, the HGF (10 μM) was 5.43 pg/mL and the IFN-α2 (10 μM) was 4.08 pg/mL. It also gave an IFN-γ (10 μM) of 76.375 pg/mL, an IL-1rα (10 μM) of 14.085 pg/mL and an IL-1α (10 μM) of 0 pg/mL. For the same substance, the IL-1β (10 μM) was 0.33 pg/mL, the IL-2 (10 μM) was 0.305 pg/mL and the IL-2rα (10 μM) was 3.825 pg/mL. It also gave an IL-3 (10 μM) of 6.14 pg/mL, an IL-4 (10 μM) of 0.235 pg/mL and an IL-5 (10 μM) of 0 pg/mL. The IL-6 (10 μM) was 0.575 pg/mL, the IL-7 (10 μM) was 3.665 pg/mL and the IL-8 (10 μM) was 1115.205 pg/mL. It also gave an IL-9 (10 μM) of 26.025 pg/mL, an IL-10 (10 μM) of 3.17 pg/mL and an IL-12 (10 μM) of 103.16 pg/mL.
